For test [1], the target named is T1, Histone-lysine N-methyltransferase NSD2 (Homo sapiens) (UniProt O96028).
T1 sequence (whole entry): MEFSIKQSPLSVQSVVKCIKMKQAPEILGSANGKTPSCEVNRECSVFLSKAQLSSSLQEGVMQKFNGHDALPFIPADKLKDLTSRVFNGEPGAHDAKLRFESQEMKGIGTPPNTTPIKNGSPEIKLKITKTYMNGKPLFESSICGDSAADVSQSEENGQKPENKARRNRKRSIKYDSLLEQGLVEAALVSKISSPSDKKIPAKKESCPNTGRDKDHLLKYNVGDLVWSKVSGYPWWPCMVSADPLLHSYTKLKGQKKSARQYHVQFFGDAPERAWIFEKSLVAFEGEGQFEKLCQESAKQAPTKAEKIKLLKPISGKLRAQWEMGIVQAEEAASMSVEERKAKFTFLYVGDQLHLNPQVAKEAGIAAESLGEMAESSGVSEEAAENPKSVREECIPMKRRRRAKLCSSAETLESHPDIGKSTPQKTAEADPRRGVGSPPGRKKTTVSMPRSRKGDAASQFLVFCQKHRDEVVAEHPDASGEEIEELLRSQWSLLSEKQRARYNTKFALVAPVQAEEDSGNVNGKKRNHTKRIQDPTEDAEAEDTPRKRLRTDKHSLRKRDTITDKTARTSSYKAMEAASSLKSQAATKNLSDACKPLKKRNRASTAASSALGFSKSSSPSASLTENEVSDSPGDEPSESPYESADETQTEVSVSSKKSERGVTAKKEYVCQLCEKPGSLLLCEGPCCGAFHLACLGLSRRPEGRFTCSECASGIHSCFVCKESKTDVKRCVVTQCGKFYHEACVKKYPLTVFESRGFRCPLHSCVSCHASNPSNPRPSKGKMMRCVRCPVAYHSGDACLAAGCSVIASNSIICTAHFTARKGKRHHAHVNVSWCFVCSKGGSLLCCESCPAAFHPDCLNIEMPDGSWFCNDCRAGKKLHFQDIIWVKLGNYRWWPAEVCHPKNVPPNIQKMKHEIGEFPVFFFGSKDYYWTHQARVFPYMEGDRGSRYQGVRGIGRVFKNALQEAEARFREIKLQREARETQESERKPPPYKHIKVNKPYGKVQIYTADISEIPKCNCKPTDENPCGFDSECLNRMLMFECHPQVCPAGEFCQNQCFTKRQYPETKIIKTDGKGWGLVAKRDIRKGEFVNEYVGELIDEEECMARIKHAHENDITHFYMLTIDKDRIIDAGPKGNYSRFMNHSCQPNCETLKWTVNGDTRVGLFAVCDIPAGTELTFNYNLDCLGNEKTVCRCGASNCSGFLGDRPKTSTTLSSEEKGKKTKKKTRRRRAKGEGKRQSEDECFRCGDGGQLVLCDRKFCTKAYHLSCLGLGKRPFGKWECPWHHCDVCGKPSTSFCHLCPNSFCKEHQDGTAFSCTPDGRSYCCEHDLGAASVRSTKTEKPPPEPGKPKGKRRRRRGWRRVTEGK
The test can be described thus: Inhibition of NSD2 (unknown origin) using biotin-labeled histone substrate assessed as residual activity at 50 uM in presence of [3H-Me]SAM by scintillation proximity assay relative to control. In general terms: In a scintillation proximity assay essentially only radioactivity close to the scintillant gives light.

Test [2] deals with Histone-lysine N-methyltransferase SETD2 (Homo sapiens) (UniProt Q9BYW2). Briefly: Inhibition of N-terminal His6-tagged human SETD2 (1347 to 1711 residues) expressed in Escherichia coli Rosseta-2(DE3) cells assessed as residual activity at 50 uM using biotinylated-histone H3 (20 to 50 residues) as substrate in presence of [3H-Me]SAM by scintillation proximity assay relative to control.

In test [3] the target is Histone-lysine N-methyltransferase 2C (Homo sapiens) (UniProt Q8NEZ4). The test can be described thus: Inhibition of MLL3 (unknown origin) using biotin-labeled histone substrate assessed as residual activity at 50 uM in presence of [3H-Me]SAM by scintillation proximity assay relative to control.
In test [4] the target is Histone-lysine N-methyltransferase KMT5C (Homo sapiens) (UniProt Q86Y97). The test can be described thus: Inhibition of SUV420H2 (unknown origin) using biotin-labeled histone substrate assessed as residual activity at 50 uM in presence of [3H-Me]SAM by scintillation proximity assay relative to control.
Chain of Histone-lysine N-methyltransferase KMT5C (Homo sapiens) (Q86Y97 whole entry, looked up): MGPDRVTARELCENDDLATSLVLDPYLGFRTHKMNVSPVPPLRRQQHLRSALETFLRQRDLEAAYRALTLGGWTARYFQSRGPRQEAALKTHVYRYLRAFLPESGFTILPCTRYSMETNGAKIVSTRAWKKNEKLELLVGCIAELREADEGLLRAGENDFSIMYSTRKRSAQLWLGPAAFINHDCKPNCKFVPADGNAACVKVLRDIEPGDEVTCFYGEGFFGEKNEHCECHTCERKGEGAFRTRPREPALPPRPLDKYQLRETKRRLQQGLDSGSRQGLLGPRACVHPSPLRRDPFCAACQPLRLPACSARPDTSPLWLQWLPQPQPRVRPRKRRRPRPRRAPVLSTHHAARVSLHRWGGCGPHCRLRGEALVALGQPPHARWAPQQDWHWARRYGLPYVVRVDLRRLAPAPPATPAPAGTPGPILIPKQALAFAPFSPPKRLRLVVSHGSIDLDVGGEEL

Chain of Histone-lysine N-methyltransferase SETD2 (Homo sapiens) (Q9BYW2 whole entry, the tested form may be a part): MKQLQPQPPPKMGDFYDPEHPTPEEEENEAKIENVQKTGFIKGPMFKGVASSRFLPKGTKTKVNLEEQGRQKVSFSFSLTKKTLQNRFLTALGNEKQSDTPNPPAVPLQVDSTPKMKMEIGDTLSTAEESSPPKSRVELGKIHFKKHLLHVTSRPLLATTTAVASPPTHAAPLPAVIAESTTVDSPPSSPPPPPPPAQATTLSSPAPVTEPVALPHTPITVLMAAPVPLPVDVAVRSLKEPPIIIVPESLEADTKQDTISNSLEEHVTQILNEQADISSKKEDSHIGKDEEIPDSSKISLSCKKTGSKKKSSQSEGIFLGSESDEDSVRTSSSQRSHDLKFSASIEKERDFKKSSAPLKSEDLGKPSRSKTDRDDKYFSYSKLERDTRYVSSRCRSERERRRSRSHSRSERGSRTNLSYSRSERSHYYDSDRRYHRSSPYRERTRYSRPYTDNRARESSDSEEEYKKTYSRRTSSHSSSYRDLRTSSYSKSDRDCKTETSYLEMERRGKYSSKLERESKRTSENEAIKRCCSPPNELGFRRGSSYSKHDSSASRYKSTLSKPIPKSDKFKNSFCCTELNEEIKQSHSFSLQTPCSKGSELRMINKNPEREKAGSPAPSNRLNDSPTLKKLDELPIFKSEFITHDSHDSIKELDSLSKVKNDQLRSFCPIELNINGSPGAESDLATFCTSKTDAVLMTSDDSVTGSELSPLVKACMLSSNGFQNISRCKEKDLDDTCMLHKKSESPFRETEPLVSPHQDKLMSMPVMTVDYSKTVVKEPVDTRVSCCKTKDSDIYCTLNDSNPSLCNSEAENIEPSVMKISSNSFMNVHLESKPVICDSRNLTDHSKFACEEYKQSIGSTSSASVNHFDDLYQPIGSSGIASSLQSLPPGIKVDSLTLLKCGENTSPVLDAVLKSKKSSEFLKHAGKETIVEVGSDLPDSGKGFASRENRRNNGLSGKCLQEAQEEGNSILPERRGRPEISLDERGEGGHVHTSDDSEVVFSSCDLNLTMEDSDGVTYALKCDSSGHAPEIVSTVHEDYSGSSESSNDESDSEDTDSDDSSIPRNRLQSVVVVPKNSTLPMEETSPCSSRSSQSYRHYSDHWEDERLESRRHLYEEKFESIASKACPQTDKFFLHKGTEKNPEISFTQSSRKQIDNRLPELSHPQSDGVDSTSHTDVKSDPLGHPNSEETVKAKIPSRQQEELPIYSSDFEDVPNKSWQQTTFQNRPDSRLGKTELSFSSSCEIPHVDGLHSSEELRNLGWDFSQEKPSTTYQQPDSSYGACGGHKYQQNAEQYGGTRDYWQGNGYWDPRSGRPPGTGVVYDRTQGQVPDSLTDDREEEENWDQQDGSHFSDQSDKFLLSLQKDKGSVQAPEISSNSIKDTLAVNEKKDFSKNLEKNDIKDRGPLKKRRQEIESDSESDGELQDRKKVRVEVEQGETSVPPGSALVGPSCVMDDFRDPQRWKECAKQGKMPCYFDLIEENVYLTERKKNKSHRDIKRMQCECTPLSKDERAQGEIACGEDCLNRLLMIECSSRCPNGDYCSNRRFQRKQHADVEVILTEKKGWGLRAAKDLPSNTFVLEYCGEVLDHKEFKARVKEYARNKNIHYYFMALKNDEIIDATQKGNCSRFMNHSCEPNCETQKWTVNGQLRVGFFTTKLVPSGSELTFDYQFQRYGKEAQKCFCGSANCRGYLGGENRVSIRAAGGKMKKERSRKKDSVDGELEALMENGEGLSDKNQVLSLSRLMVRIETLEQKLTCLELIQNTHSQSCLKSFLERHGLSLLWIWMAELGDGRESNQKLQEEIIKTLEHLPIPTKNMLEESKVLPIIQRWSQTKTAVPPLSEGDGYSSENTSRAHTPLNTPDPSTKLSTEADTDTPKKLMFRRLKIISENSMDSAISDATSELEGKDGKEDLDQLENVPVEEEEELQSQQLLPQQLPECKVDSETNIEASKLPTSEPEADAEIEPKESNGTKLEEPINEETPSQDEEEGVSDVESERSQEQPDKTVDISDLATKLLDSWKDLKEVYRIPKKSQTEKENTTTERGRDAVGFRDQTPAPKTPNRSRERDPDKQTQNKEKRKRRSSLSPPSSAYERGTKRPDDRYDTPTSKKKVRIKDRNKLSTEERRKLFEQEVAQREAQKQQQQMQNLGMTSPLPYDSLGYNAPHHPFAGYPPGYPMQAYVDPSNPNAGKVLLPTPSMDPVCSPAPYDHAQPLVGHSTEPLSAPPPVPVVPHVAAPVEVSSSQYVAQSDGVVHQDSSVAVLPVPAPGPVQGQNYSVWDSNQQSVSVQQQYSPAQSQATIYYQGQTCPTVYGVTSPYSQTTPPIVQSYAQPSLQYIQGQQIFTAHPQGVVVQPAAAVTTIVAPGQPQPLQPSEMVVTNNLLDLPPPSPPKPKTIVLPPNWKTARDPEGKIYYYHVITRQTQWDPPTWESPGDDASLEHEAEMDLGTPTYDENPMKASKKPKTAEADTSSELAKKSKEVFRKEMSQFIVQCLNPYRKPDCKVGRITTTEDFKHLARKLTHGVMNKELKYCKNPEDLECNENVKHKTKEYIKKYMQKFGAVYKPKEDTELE

Consider `O=C(c1cccc(Br)c1)N1C[C@H]2CCCN[C@H]2C1`, for which the Activity came to 89% in test [1], 119% in test [2], 116% in test [3] and 98% in test [4].

In the case of `O=C(c1cccc(Br)c1)N1C[C@@H]2CCN[C@@H]2C1`, the Activity in test [1] was 94%; in test [2] it was 110%; in test [3], 95%; in test [4], 94%.

With `O=C(c1cccc(Br)c1)N1CCC2CNCC2C1` (stereo unspecified), the Activity amounted to 97% in test [1], 111% in test [2], 104% in test [3] and 104% in test [4].

In the case of `CN1CCCCC12CCCN(C(=O)c1cccc(Br)c1)C2` (stereo unspecified), the Activity came to 101% in test [1], 111% in test [2], 103% in test [3] and 99% in test [4].

For the molecule `CN1CC[C@H]2CN(C(=O)c3cccc(Br)c3)C[C@H]21`, the Activity in test [1] was determined as 102%; in test [2], 108%; in test [3], 105%; in test [4] it was 100%.

With `CN1CCC2(CCCN2C(=O)c2cccc(Br)c2)CC1`, the Activity in test [1] was determined as 99%; in test [2] it was 98%; in test [3], 97%; in test [4], 99%.

On to `C[N+]1(C)CCCCC12CCN(C(=O)c1cccc(Br)c1)CC2`, for which the Activity was found to be 99% in test [1], 102% in test [2], 96% in test [3] and 98% in test [4].

Consider `CN1CCC2(CCCN(C(=O)c3cccc(Br)c3)C2)C1` (stereo unspecified), for which the Activity was determined as 105% in test [1], 88% in test [2], 94% in test [3] and 96% in test [4].

Take `O=C(c1cccc(Br)c1)N1CCCC2(CCNCC2)C1`: the Activity in test [1] amounted to 104%; in test [2], 107%; in test [3], 107%; in test [4], 100%.

`CN1C[C@H]2CCCN(C(=O)c3cccc(Br)c3)[C@H]2C1`: the Activity in test [1] is 96%; in test [2], 106%; in test [3], 105%; in test [4] it was 100%.

Consider `CN1CCCCC12CCN(C(=O)c1cccc(Br)c1)CC2`, for which the Activity in test [1] was 103%; in test [2], 101%; in test [3], 104%; in test [4] it was 94%.

`O=C(c1cccc(Br)c1)N1C[C@@H]2CC3CCCCN3[C@@H]2C1` (stereo partly specified): the Activity was found to be 96% in test [1], 105% in test [2], 102% in test [3] and 100% in test [4].

Take `CN1CCC[C@@H]2CN(C(=O)c3cccc(Br)c3)C[C@@H]21`: the Activity in test [1] was determined as 95%; in test [2], 104%; in test [3] it was 106%; in test [4], 100%.

Turning to `O=C(c1cccc(Br)c1)N1C[C@@H]2CC3CCCN3[C@@H]2C1` (stereo partly specified), the Activity was 101% in test [1], 110% in test [2], 97% in test [3] and 101% in test [4].

With `O=C(c1cccc(Br)c1)N1CCC[C@@H]2CNC[C@@H]21`, the Activity was 101% in test [1], 102% in test [2], 108% in test [3] and 103% in test [4].

Take `CN1CCCC12CCN(C(=O)c1cccc(Br)c1)CC2`: the Activity is 99% in test [1], 108% in test [2], 106% in test [3] and 103% in test [4].

For `O=C(c1cccc(Br)c1)N1CCCC2(CCCCN2)C1` (stereo unspecified), the Activity turned out to be 96% in test [1], 105% in test [2], 101% in test [3] and 96% in test [4].

Take `CN1CCC2(CC1)CCN(C(=O)c1cccc(Br)c1)CC2`: the Activity in test [1] came out at 99%; in test [2] it was 105%; in test [3], 99%; in test [4], 105%.

For the molecule `O=C(c1cccc(Br)c1)N1CC[C@@H]2[C@@H](CC3CCCCN32)C1` (stereo partly specified), the Activity in test [1] was 98%; in test [2], 102%; in test [3], 97%; in test [4], 89%.

Regarding `CN1CCCC12CCCN(C(=O)c1cccc(Br)c1)C2` (stereo unspecified), the Activity was found to be 99% in test [1], 107% in test [2], 105% in test [3] and 83% in test [4].

Regarding `CN1CCCC2(CCCN2C(=O)c2cccc(Br)c2)C1` (stereo unspecified), the Activity in test [1] was 105%; in test [2], 109%; in test [3] it was 97%; in test [4], 109%.

On to `O=C(c1cccc(Br)c1)N1CC[C@H]2NCC[C@H]2C1`, for which the Activity in test [1] turned out to be 97%; in test [2], 107%; in test [3] it was 103%; in test [4] it was 99%.

Take `CN1CCCC2(CCCN(C(=O)c3cccc(Br)c3)C2)C1` (stereo unspecified): the Activity stood at 101% in test [1], 99% in test [2], 96% in test [3] and 100% in test [4].

As for `O=C(c1cccc(Br)c1)N1CCC2(CCNCC2)CC1`, the Activity in test [1] is 103%; in test [2], 107%; in test [3], 103%; in test [4], 97%.

(Values after ChEMBL document CHEMBL4477270, “Design, synthesis, and protein methyltransferase activity of a unique set of constrained amine containing compounds” (Bioorg Med Chem Lett, 2016).)
